From PMC12648288, “Drastic Impact of Donor Substituents on Xanthenes in the PDT of Glioblastoma” (JACS Au, 2025)

What was measured:
[1] = n-octanol/PBS distribution (LogP); assay type: physicochemical; conditions: Distribution coefficient in n-octanol/PBS solution
[2] = system: U118MG cells; experiment: AO/EtBr staining for cell death; assay type: cell-based, human; conditions: IC50 concentration, after irradiation
Protocol: (§1) The rapid mitochondrial disruption often shifts the balance toward irreversible cell death pathways. […] In this regard, acridine orange/ethidium bromide (AO/EtBr) staining was performed to detect cell death. […]
(§2) Acridine Orange/Ethidium Bromide (AO/EtBr) staining for cell death
(§3) Dual acridine orange/ethidium bromide (AO/EtBr) staining was performed to discriminate live, early apoptotic and/or necrotic cells on the basis of membrane permeability.1,2 U87MG and U118MG cells were seeded in 24-well plates at a density of 5 × 10⁴ cells/well and treated with the IC₅₀ concentrations of the photosensitizers NSeMorph and NSeAze. After irradiation, cells were rested at 37 °C for 20 minutes, followed by staining with AO (2.5 µg/ml) and EtBr (2.5 µg/ml) in serum-free DMEM […]
(§4) under dark conditions for an additional 20-30 minutes. Subsequently, cells were washed with 1X PBS, and confocal images were taken at 500/525 nm (ex/em) for AO […]
(§5) Ta b l e S3. Comparison of recently reported PSs for the treatment of glioblastoma multiforme.
(§6) Photosensitizer Abs* Mwt IC (μM) Cell Line PI Ref. […]

[3] = system: U87MG cells; experiment: AO/EtBr staining for cell death; assay type: cell-based, human; conditions: IC50 concentration, after irradiation
Protocol: as §1, §2, §3, §4, §5, §6

[4] = system: U118MG cells; experiment: Lipid peroxidation (TBARS); assay type: cell-based, human; conditions: IC50 concentration, PDT, up to 24 h postirradiation, % of untreated control
Protocol: (§7) Further analysis was conducted to elucidate mitochondrial- or lysosomal-localization-dependent cell death mechanisms. For this purpose, lipid peroxidation, a major end product of ROS-mediated cellular damage, was assessed. […] Moreover, the pronounced rise in lipid peroxidation was predominantly evident during the 24 h resting stage rather than immediately after light exposure, as observed with NSeAze. The apparent increase in lipid peroxidation explains the damage to the membranous structures of cells, such as mitochondria, lysosomes, and plasma membranes (Figure a,b). This was further confirmed by the detection of free unsaturated lipid content of cells, which is released upon disruption of the membranous structures.
(§8) Determination of lipid peroxidation
(§9) The effect of NSeMorph and NSeAze on lipid peroxidation was investigated using thiobarbituric acid reactive substances (TBARS) method,1 which is based on measuring malondialdehyde (MDA) levels, the end-product of lipid peroxidation. For this purpose, cells were seeded in 6-well plates at a density of 1 × 10^6 cells/well and incubated overnight. Afterwards, both compounds were administered in IC50 values according to the above-mentioned PDT protocol. The resulting lipid peroxidation was measured following the immediate irradiation and after 24 h of resting stage. After the indicated time periods, cells were harvested and lysed with a RIPA cell lysis buffer (Merck, Germany). The lysates were then prepared according to the TBARS assay protocol. Briefly, the samples were mixed with 0.8% thiobarbituric acid prepared in 20% trichloroacetic acid solution and then incubated for 2 h at 95 °C. Absorbance of the resulting pink-to-red color was measured at 532 nm with a spectrophotometer (Thermo, Germany). Data were expressed as % compared to untreated control group and normalized to cell viability rates (n=6). […]

[5] = system: U87MG cells; experiment: Lipid peroxidation (TBARS); assay type: cell-based, human; conditions: IC50 concentration, PDT, up to 24 h postirradiation, % of untreated control
Protocol: as §7, §8, §9

[6] = assay type: physicochemical; conditions: pH 5.4
Protocol: Before singlet oxygen trapping experiments were conducted, the photostability of NSeMorph and NSeAze was evaluated under irradiation with a 660 nm LED light source (24.3 mW/cm^2). […] Subsequently, their singlet oxygen generation capabilities were assessed in PBS buffer. 2,2′-(Anthracene-9,10-diyl)-bis(methylene)-dimalonic acid was used as a singlet oxygen trap to determine the quantum yields of singlet oxygen generation (ΦΔ). […] Furthermore, the ROS generation capabilities of the PSs were also evaluated using singlet oxygen sensor green (SOSG).
The gradual but pronounced lysosomal accumulation over time of NSeMoprh, coupled with only moderate mitochondrial targeting, restrict its ability to induce cell death via direct mitochondrial ROS production effectively. Conversely, NSeAze achieves rapid and efficient mitochondrial localization within the first hour of treatment in addition to significant lysosomal localization as well. […] To eliminate the possibility of degradation in lysosomes due to their acidic nature, the stabilities of both NSeMorph and NSeAze were evaluated at different pHs under both dark and light conditions.
Figure S5. Photostability of NSeMorph (20 μM) in sodium citrate buffer (1% DMSO) a. pH 5.4 and e. pH 6.4 upon irradiation with LED light (660 nm, 100 s total irradiation time) and its time dependent absorbance profile at b. pH 5.4, f. pH 6.4. […]

Row | Compound | logP [1] | Cell death type (AO/EtBr) [2] | Cell death type (AO/EtBr) [3] | Lipid peroxidation [4] | Lipid peroxidation [5] | Photostability [6]
1 | c1cc2nc3ccc(=[N+]4CCC4)cc-3[se]c2cc1N1CCC1 [NSeAze] | 0.81 | late apoptosis/necrosis | early apoptosis | 245.24 ± 5.92% | 309.64 ± 13.20% | no significant photodecomposition
2 | c1cc2nc3ccc(=[N+]4CCOCC4)cc-3[se]c2cc1N1CCOCC1 [NSeMorph] | -0.42 | early apoptotic pattern | early apoptosis | 244.22 ± 2.38% | 216.73 ± 3.98% | no significant photodecomposition
